# Legend:
# [1] = target: T1, hTRPC3 (Homo sapiens, UniProt Q13507); test: TRP channel panel primary screen (membrane potential dye, stable HEK line); format: cell-based; settings: 0.3-300μM; effects over the micromolar range
# T1 sequence (Q13507 1-921): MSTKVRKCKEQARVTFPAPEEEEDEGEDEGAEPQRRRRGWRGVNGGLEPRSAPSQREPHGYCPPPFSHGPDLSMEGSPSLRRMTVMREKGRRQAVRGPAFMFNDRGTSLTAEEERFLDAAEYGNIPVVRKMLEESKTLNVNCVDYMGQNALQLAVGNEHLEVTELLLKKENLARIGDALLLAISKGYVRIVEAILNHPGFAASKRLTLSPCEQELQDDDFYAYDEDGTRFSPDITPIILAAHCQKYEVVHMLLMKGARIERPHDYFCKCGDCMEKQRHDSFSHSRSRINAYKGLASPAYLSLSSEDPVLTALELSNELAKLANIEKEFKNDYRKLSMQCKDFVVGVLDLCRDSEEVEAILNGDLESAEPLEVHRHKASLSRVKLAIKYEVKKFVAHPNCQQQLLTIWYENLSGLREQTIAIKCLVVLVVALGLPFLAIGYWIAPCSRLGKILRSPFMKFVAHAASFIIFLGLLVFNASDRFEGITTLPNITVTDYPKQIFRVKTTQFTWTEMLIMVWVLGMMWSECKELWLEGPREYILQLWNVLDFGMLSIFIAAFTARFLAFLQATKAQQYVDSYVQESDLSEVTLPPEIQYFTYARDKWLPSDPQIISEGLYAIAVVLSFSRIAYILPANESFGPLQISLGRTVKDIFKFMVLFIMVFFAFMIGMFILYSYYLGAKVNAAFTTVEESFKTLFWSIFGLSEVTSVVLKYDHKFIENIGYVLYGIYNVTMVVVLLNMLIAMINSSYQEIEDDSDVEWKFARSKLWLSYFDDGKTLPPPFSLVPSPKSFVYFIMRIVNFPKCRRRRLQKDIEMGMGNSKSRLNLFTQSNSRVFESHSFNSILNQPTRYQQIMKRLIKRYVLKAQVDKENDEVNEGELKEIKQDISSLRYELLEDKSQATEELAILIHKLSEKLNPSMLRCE
# Method: (§1) ±PZQ, (R)-PZQ and (S)-PZQ were screened against a panel of 17 human TRP channels (SB Drug Discovery, Glasgow). For all hTRPs, except for TRPM5, individual channel constructs were stably expressed in HEK cell lines. TRMP5 was expressed in a stable CHO cell line. In preparation for the assays, cells were trypsinized, counted and seeded (50,000 cells/well) in black, clear-bottomed 96 well plates and incubated overnight. The following day, cells were loaded with a fluorescent indicator (FLIPR Calcium 5 Assay kit for TRPA1, TRPV1, TRPV2, TRPV3, TRPV4, TRPV5, TRPC1, TRPM2, TRPM3 and TRPM8, or a membrane potential dye (FLIPR Membrane Potential Red Assay Kit for TRPC3, TRPC4, TRPC5, TRPC6, TRPC7, TRPM4 and TRPM5) prepared according to the manufacturer’s instructions in HEPES buffered Hank’s balanced salt solution (HBSS). Dye solution (10μl) was added to appropriate wells and incubated at 37°C for 1 hour. All assays were performed at room temperature. Compounds were tested at 0.3, 1, 3, 10, 30, 100μM and 300μM in triplicate in both agonist and antagonist mode to determine EC50 and IC50 values, which were compared with reference compounds. Compounds were screened at a final DMSO concentration of 0.5%. Plates were screened using a Flexstation (Molecular Devices, FX01138), monitoring fluorescence values every ~1.52 seconds. For ‘agonist mode’ testing, 10μl of the appropriate test compound, or standard agonist, was added after 20 seconds and fluorescence monitored for 2 minutes at λex = 485nm, λem = 525nm for Ca^2+ imaging and λex = 530nm, λem = 565nm for membrane potential measurements. For ‘antagonist mode’ testing, test compounds and standard inhibitors were added to appropriate wells and incubated for 10 minutes at room temperature prior to addition of standard agonist compound.
# [2] = target: T2, hTRPC7 (Homo sapiens, UniProt Q9HCX4); test: as above; format: cell-based; settings: 0.3-300μM; effects over the micromolar range
# T2 sequence (Q9HCX4 1-862): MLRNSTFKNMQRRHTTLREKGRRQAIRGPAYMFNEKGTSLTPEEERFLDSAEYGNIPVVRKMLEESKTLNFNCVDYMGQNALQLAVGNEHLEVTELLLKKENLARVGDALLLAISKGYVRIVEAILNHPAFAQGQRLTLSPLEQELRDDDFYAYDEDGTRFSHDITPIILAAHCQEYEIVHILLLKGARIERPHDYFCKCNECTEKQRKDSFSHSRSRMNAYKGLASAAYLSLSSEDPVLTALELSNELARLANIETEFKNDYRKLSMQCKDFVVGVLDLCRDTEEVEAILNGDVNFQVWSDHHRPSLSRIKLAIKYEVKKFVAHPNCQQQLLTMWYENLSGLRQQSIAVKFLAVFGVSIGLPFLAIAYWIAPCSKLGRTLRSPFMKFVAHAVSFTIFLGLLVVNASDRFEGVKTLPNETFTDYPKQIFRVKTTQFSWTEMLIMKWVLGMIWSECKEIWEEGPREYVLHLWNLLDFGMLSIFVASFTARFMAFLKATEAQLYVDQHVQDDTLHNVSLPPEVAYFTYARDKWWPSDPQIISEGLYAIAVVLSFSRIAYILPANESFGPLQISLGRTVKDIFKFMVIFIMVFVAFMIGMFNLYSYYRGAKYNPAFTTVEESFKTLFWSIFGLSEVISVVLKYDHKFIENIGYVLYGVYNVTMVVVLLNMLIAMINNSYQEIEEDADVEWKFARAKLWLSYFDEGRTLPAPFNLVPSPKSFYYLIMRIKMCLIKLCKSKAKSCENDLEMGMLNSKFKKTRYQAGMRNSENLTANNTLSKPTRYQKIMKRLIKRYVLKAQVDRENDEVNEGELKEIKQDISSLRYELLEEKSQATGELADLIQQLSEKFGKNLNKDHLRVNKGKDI
# Method: as §1
# [3] = tested on: mouse mesenteric arteries; test: Wire myography, mesenteric artery strips precontracted with high K+ (KPSS)
# [4] = target: hTRPM8 (Homo sapiens, UniProt Q7Z2W7); test: TRP channel panel primary screen (FLIPR Calcium 5, stable HEK line); format: cell-based; settings: 0.3-300μM; effects over the micromolar range
# Sequence of hTRPM8 (Q7Z2W7 whole entry): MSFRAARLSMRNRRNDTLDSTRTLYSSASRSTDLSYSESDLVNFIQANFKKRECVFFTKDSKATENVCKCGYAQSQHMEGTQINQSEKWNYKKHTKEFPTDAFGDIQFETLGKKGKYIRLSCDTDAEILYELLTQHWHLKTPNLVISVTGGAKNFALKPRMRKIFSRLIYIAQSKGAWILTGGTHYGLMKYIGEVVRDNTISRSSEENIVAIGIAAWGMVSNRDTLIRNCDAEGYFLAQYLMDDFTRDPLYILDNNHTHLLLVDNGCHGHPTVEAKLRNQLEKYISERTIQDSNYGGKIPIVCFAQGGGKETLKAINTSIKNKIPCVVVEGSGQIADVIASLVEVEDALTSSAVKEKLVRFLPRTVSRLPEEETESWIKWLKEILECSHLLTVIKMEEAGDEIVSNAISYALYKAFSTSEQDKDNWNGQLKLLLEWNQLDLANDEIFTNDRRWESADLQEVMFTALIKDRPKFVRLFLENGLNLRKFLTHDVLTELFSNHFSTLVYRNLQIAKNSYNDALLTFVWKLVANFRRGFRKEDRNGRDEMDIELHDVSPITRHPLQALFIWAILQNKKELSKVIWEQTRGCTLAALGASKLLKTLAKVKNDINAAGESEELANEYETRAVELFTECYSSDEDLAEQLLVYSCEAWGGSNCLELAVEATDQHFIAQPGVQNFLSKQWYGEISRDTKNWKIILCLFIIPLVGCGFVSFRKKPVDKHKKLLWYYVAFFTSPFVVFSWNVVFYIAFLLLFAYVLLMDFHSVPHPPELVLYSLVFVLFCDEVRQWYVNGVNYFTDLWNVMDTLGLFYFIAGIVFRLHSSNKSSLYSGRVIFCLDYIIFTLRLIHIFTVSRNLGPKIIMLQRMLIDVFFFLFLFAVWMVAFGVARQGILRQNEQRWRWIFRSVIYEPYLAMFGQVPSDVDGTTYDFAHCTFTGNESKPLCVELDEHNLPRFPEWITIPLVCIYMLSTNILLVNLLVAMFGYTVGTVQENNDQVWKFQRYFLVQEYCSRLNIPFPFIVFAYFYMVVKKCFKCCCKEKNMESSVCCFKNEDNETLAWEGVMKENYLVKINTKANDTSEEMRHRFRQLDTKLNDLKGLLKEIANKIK
# Method: as §1
# [5] = target: hTRPA1 (Homo sapiens, UniProt O75762); test: as above; format: cell-based; settings: 0.3-300μM; effects over the micromolar range
# Sequence of hTRPA1 (O75762 whole entry): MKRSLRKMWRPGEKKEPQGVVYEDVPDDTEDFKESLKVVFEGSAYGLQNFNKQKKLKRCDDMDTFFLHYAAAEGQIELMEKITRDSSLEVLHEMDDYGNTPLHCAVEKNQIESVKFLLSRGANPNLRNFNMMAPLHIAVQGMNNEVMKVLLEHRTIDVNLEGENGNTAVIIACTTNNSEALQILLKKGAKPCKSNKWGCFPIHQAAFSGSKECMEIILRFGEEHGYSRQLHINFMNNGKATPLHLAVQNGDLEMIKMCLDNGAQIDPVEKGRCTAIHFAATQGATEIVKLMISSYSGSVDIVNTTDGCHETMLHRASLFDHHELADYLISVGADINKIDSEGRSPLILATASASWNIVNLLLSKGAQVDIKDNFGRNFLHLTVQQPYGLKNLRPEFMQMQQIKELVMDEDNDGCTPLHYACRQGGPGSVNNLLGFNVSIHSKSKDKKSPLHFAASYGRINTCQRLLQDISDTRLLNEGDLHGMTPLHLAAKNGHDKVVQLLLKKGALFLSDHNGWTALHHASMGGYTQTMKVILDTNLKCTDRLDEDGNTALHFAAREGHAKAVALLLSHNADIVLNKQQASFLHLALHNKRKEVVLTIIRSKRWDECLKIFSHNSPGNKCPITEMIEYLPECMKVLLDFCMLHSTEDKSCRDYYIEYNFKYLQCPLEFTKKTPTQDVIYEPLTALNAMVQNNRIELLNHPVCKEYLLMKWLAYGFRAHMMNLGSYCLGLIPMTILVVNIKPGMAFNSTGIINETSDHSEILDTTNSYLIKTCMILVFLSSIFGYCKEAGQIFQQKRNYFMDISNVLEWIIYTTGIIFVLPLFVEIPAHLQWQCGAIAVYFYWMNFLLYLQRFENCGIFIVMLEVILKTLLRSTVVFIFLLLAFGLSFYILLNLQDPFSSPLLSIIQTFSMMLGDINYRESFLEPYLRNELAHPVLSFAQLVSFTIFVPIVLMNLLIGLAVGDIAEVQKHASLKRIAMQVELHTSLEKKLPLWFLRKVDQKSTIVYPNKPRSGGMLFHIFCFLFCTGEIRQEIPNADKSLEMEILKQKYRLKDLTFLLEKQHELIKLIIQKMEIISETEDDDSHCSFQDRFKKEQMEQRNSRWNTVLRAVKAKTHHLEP
# Method: as §1
activity at hTRPC3 in primary screen [1],activity at hTRPC7 in primary screen [2],activity at hTRPM8 in primary screen [4],activity at hTRPA1 in primary screen [5],Compound,"relaxation of the KPSS-contracted vessel ([3]; 100μM, peak relaxation) [%]","change in tension of KPSS-precontracted vessels ([3]; 50μM, bath application during KPSS-evoked contraction)","extent of relaxation ([3]; WT tissue, 50μM)"
displayed activity,displayed activity,displayed activity,displayed activity,"O=C(C1CCCCC1)N1CC(=O)N2CCc3ccccc3C2C1 (racemic) [±PZQ, praziquantel]",61±9,,
activated,activated,sole active enantiomer,activated,O=C(C1CCCCC1)N1CC(=O)N2CCc3ccccc3[C@H]2C1 [(S)-PZQ],,decrease in tension,~ 30 % of peak KPSS-evoked tone

# Reference: paper PMC5927461, “Activation of host transient receptor potential (TRP) channels by praziquantel stereoisomers” (PLoS Neglected Tropical Diseases, 2018)
